Reference: PubChem BioAssay AID222 (DTP/NCI, 2004)
Several values for one entry are separate records, joined by “and”; a condition that tells them apart may be missing. Identical values can stand only once. Toxic doses and inconclusive results are not listed.

Tested on: C57BL/6 mice, intracerebral ependymoblastoma, median survival T/C
Assay: NCI In Vivo Anticancer Drug Screen. Data for tumor model Ependymoblastoma (intracerebral) in C57BL/6 mice
Conditions: endpoint: median survival time, higher = longer survival
Experimental: The antitumor activity of compounds was measured in mice bearing transplantable tumors. Survival or tumor size were measured and the results are expressed as the measurement made in the treated group (T) divided by the measurement made in the vehicle treated control group (C). The tumor model used in this assay is Ependymoblastoma (intracerebral) in C57BL/6 mice

SMILES: OC(C1CO1)C(O)C1CO1 (stereo unspecified)
- T/C (dose: 0.12 mg/kg/injection, schedule: Q03HX024 (ip), vehicle: saline): 108 % of control
- T/C (dose: 0.25 mg/kg/injection, schedule: Q01DX001 (ip), vehicle: saline): 102 % of control
- T/C (dose: 0.25 mg/kg/injection, schedule: Q01DX005 (ip), vehicle: saline): 112 % of control
- T/C (dose: 0.25 mg/kg/injection, schedule: Q01DX005 (oral), vehicle: saline): 111 % of control
- T/C (dose: 0.25 mg/kg/injection, schedule: Q01DX009 (ip), vehicle: saline): 101 % of control
- T/C (dose: 0.25 mg/kg/injection, schedule: Q03HX008 (ip), vehicle: saline): 110 % of control
- T/C (dose: 0.25 mg/kg/injection, schedule: Q03HX016 (ip), vehicle: saline): 103 % of control
- T/C (dose: 0.25 mg/kg/injection, schedule: Q03HX024 (ip), vehicle: saline): 99 % of control
- T/C (dose: 0.5 mg/kg/injection, schedule: Q01DX001 (ip), vehicle: saline): 112 % of control
- T/C (dose: 0.5 mg/kg/injection, schedule: Q01DX001 (oral), vehicle: saline): 101 % of control
- T/C (dose: 0.5 mg/kg/injection, schedule: Q01DX005 (ip), vehicle: clinical formulation): 104 % of control
- T/C (dose: 0.5 mg/kg/injection, schedule: Q01DX005 (oral), vehicle: saline): 110 % of control
- T/C (dose: 0.5 mg/kg/injection, schedule: Q01DX009 (ip), vehicle: saline): 108 % of control
- T/C (dose: 0.5 mg/kg/injection, schedule: Q03HX008 (ip), vehicle: saline): 123 % of control
- T/C (dose: 0.5 mg/kg/injection, schedule: Q03HX016 (ip), vehicle: saline): 107 % of control
- T/C (dose: 0.5 mg/kg/injection, schedule: Q03HX024 (ip), vehicle: saline): 98 % of control
- T/C (dose: 0.5 mg/kg/injection, schedule: Q## X006 (ip), vehicle: clinical formulation): 107 % of control
- T/C (dose: 1.0 mg/kg/injection, schedule: Q01DX001 (ip), vehicle: saline): 95 % of control and 107 % of control
- T/C (dose: 1.0 mg/kg/injection, schedule: Q01DX001 (oral), vehicle: saline): 108 % of control
- T/C (dose: 1.0 mg/kg/injection, schedule: Q01DX005 (ip), vehicle: clinical formulation): 116 % of control
- T/C (dose: 1.0 mg/kg/injection, schedule: Q01DX005 (oral), vehicle: saline): 106 % of control
- T/C (dose: 1.0 mg/kg/injection, schedule: Q01DX009 (ip), vehicle: saline): 109 % of control
- T/C (dose: 1.0 mg/kg/injection, schedule: Q03HX016 (ip), vehicle: saline): 113 % of control
- T/C (dose: 1.0 mg/kg/injection, schedule: Q03HX024 (ip), vehicle: saline): 94 % of control
- T/C (dose: 1.0 mg/kg/injection, schedule: Q04DX003 (ip), vehicle: saline): 100 % of control
- T/C (dose: 1.0 mg/kg/injection, schedule: Q08DX002 (ip), vehicle: saline): 108 % of control
- T/C (dose: 1.0 mg/kg/injection, schedule: Q## X006 (ip), vehicle: clinical formulation): 108 % of control
- T/C (dose: 1.0 mg/kg/injection, schedule: Q#A X002 (ip), vehicle: clinical formulation): 104 % of control
- T/C (dose: 1.25 mg/kg/injection, schedule: Q01DX005 (ip), vehicle: saline): 365 % of control
- T/C (dose: 2.0 mg/kg/injection, schedule: Q01DX001 (ip), vehicle: clinical formulation): 91 % of control and 96 % of control and 107 % of control
- T/C (dose: 2.0 mg/kg/injection, schedule: Q01DX001 (ip), vehicle: saline): 94 % of control and 100 % of control and 113 % of control
- T/C (dose: 2.0 mg/kg/injection, schedule: Q01DX001 (oral), vehicle: saline): 108 % of control
- T/C (dose: 2.0 mg/kg/injection, schedule: Q01DX005 (ip), vehicle: clinical formulation): 115 % of control
- T/C (dose: 2.0 mg/kg/injection, schedule: Q01DX005 (oral), vehicle: clinical formulation): 106 % of control
- T/C (dose: 2.0 mg/kg/injection, schedule: Q01DX005 (oral), vehicle: saline): 118 % of control
- T/C (dose: 2.0 mg/kg/injection, schedule: Q01DX009 (ip), vehicle: saline): 113 % of control
- T/C (dose: 2.0 mg/kg/injection, schedule: Q03HX016 (ip), vehicle: saline): 118 % of control
- T/C (dose: 2.0 mg/kg/injection, schedule: Q03HX024 (ip), vehicle: saline): 105 % of control
- T/C (dose: 2.0 mg/kg/injection, schedule: Q04DX003 (ip), vehicle: saline): 105 % of control
- T/C (dose: 2.0 mg/kg/injection, schedule: Q08DX002 (ip), vehicle: saline): 102 % of control
- T/C (dose: 2.0 mg/kg/injection, schedule: Q## X006 (ip), vehicle: clinical formulation): 109 % of control
- T/C (dose: 2.0 mg/kg/injection, schedule: Q#A X002 (ip), vehicle: clinical formulation): 106 % of control
- T/C (dose: 2.5 mg/kg/injection, schedule: Q01DX005 (oral), vehicle: saline): 365 % of control
- T/C (dose: 3.0 mg/kg/injection, schedule: Q01DX005 (ip), vehicle: saline): 119 % of control and 301 % of control
- T/C (dose: 4.0 mg/kg/injection, schedule: Q01DX001 (ip), vehicle: clinical formulation): 102 % of control and 105 % of control and 108 % of control
- T/C (dose: 4.0 mg/kg/injection, schedule: Q01DX001 (ip), vehicle: saline): 94 % of control and 120 % of control
- T/C (dose: 4.0 mg/kg/injection, schedule: Q01DX001 (oral), vehicle: saline): 96 % of control
- T/C (dose: 4.0 mg/kg/injection, schedule: Q01DX009 (ip), vehicle: saline): 103 % of control
- T/C (dose: 4.0 mg/kg/injection, schedule: Q03HX008 (ip), vehicle: saline): 97 % of control
- T/C (dose: 4.0 mg/kg/injection, schedule: Q03HX016 (ip), vehicle: saline): 93 % of control
- T/C (dose: 4.0 mg/kg/injection, schedule: Q03HX024 (ip), vehicle: saline): 94 % of control
- T/C (dose: 4.0 mg/kg/injection, schedule: Q04DX003 (ip), vehicle: saline): 95 % of control
- T/C (dose: 4.0 mg/kg/injection, schedule: Q08DX002 (ip), vehicle: saline): 102 % of control
- T/C (dose: 4.0 mg/kg/injection, schedule: Q#A X002 (ip), vehicle: clinical formulation): 117 % of control
- T/C (dose: 5.0 mg/kg/injection, schedule: Q01DX005 (oral), vehicle: saline): 365 % of control
- T/C (dose: 8.0 mg/kg/injection, schedule: Q01DX001 (ip), vehicle: clinical formulation): 89 % of control and 106 % of control
- T/C (dose: 8.0 mg/kg/injection, schedule: Q01DX001 (ip), vehicle: saline): 94 % of control and 108 % of control and 112 % of control
- T/C (dose: 8.0 mg/kg/injection, schedule: Q01DX001 (oral), vehicle: clinical formulation): 91 % of control and 102 % of control and 115 % of control
- T/C (dose: 8.0 mg/kg/injection, schedule: Q01DX001 (oral), vehicle: saline): 108 % of control
- T/C (dose: 8.0 mg/kg/injection, schedule: Q01DX009 (ip), vehicle: saline): 107 % of control
- T/C (dose: 8.0 mg/kg/injection, schedule: Q03HX008 (ip), vehicle: saline): 95 % of control
- T/C (dose: 8.0 mg/kg/injection, schedule: Q03HX016 (ip), vehicle: saline): 94 % of control
- T/C (dose: 8.0 mg/kg/injection, schedule: Q04DX003 (ip), vehicle: saline): 122 % of control
- T/C (dose: 8.0 mg/kg/injection, schedule: Q08DX002 (ip), vehicle: saline): 104 % of control
- T/C (dose: 8.0 mg/kg/injection, schedule: Q#A X002 (ip), vehicle: clinical formulation): 100 % of control
- T/C (dose: 16.0 mg/kg/injection, schedule: Q01DX001 (ip), vehicle: clinical formulation): 98 % of control
- T/C (dose: 16.0 mg/kg/injection, schedule: Q01DX001 (ip), vehicle: saline): 98 % of control and 101 % of control
- T/C (dose: 16.0 mg/kg/injection, schedule: Q01DX001 (oral), vehicle: clinical formulation): 104 % of control and 108 % of control
- T/C (dose: 16.0 mg/kg/injection, schedule: Q01DX001 (oral), vehicle: saline): 101 % of control
- T/C (dose: 16.0 mg/kg/injection, schedule: Q04DX003 (ip), vehicle: saline): 99 % of control
- T/C (dose: 16.0 mg/kg/injection, schedule: Q08DX002 (ip), vehicle: saline): 104 % of control
- T/C (dose: 16.0 mg/kg/injection, schedule: Q#A X002 (ip), vehicle: clinical formulation): 102 % of control
- T/C (dose: 32.0 mg/kg/injection, schedule: Q01DX001 (ip), vehicle: clinical formulation): 100 % of control
- T/C (dose: 32.0 mg/kg/injection, schedule: Q01DX001 (ip), vehicle: saline): 90 % of control and 100 % of control
- T/C (dose: 32.0 mg/kg/injection, schedule: Q01DX001 (oral), vehicle: clinical formulation): 100 % of control and 114 % of control
- T/C (dose: 32.0 mg/kg/injection, schedule: Q01DX001 (oral), vehicle: saline): 103 % of control
- T/C (dose: 32.0 mg/kg/injection, schedule: Q04DX003 (ip), vehicle: saline): 92 % of control
- T/C (dose: 32.0 mg/kg/injection, schedule: Q08DX002 (ip), vehicle: saline): 99 % of control
- T/C (dose: 64.0 mg/kg/injection, schedule: Q01DX001 (ip), vehicle: saline): 97 % of control and 102 % of control
- T/C (dose: 64.0 mg/kg/injection, schedule: Q01DX001 (oral), vehicle: clinical formulation): 100 % of control
- T/C (dose: 128.0 mg/kg/injection, schedule: Q01DX001 (oral), vehicle: clinical formulation): 100 % of control
